Experimental data published in article PMC11956004 (2025).
Starred links: 1 amine or outer side, 2 acyl side, 3 side chain; linkers in the order of their positions; H or OH if unused. Positions of bridges follow the written chain, without caps; N, C: chain ends. Non-standard residues stand in square brackets, D forms with d. Residues, ends and D or L forms follow the SMILES beside them. Chains are numbered I, II in the order given. Actinocin(9to1) = Cc1c2oc3c(C)ccc(C(=O)[*:1])c3nc-2c(C(=O)[*:2])c(N)c1=O; NMeV = CN[C@H](C(=O)O)C(C)C; Sar = CNCC(=O)O

Experiments:
[1] = test system: AAGCAAACGAAA (DNA, duplex) AAGCAAACGAAA/TTTCGTTTGCTT; experiment: CD titration; settings: Mg2+ 5 mM, Na+ (50 mM sodium cacodylate); 50 mM sodium cacodylate pH 7.2; 20 μM duplex, drug 1-4 equivalents
[2] = test system: AAAGCAACGAAA (DNA, duplex) AAAGCAACGAAA/TTTCGTTGCTTT; experiment: CD titration; settings: Mg2+ 5 mM, Na+ (50 mM sodium cacodylate); 50 mM sodium cacodylate pH 7.2; 20 μM duplex, drug 1-4 equivalents
[3] = test system: AAAGCACGAAAA (DNA, duplex) AAAGCACGAAAA/TTTTCGTGCTTT; experiment: CD titration; settings: Mg2+ 5 mM, Na+ (50 mM sodium cacodylate); 50 mM sodium cacodylate pH 7.2; 20 μM duplex, drug 1-4 equivalents
[4] = test system: AAAAGCCGAAAA (DNA, duplex) AAAAGCCGAAAA/TTTTCGGCTTTT; experiment: fluorescence quenching of Dox, Hill fit; settings: Mg2+ 5 μM (so in the source); 50 μM Na cacodylate pH 7.3 (so in the source); 1 μM Dox alone, apparent; Kd decreases when ActD added
[5] = test system: AAAAGCCGAAAA (DNA, duplex) AAAAGCCGAAAA/TTTTCGGCTTTT; experiment: CD titration; settings: Mg2+ 5 mM, Na+ (50 mM sodium cacodylate); 50 mM sodium cacodylate pH 7.2; 20 μM duplex, drug 1-4 equivalents
[6] = test system: d(AGCCGT)2 (DNA, duplex) AGCCGT/ACGGCT; experiment: X-ray crystallography (1.57 Å); settings: Mn2+ 3 mM, Li+ 30 mM, 25 mM MES pH 6.5, 3% PEG400, 20 °C

binding [1]	binding [2]	binding [3]	Kd [4] [µM]	binding [5]	binding ([6]; ternary complex with actinomycin D, intercalated at C4pG5)	binding ([6]; ternary complex with doxorubicin, intercalated at G2pC3)	Compound
yes	yes	yes	2.13	yes	yes		COc1cccc2c1C(=O)c1c(O)c3c(c(O)c1C2=O)C[C@@](O)(C(=O)CO)C[C@@H]3O[C@H]1C[C@H](N)[C@H](O)[C@H](C)O1
yes	yes	yes		yes		yes	Cc1c2oc3c(C)ccc(C(=O)N[C@@H]4C(=O)N[C@H](C(C)C)C(=O)N5CCC[C@H]5C(=O)N(C)CC(=O)N(C)[C@@H](C(C)C)C(=O)O[C@@H]4C)c3nc-2c(C(=O)N[C@@H]2C(=O)N[C@H](C(C)C)C(=O)N3CCC[C@H]3C(=O)N(C)CC(=O)N(C)[C@@H](C(C)C)C(=O)O[C@@H]2C)c(N)c1=O (I: T[dV]P[Sar][NMeV] / II: T[dV]P[Sar][NMeV]; ester I:1-I:C, II:1-II:C; linker I:N-II:N via Actinocin(9to1))
